According to PubChem BioAssay (NCI):
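48-hour exposure; five concentrations; linearly interpolated endpoints. GI50 marks 50% less growth. TGI denotes the concentration required for complete inhibition of growth.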

What was measured:
Experiment in all cases: DTP human tumour cell line panel, 48 h
OVCAR-5 ovarian = test system: OVCAR-5 ovarian
OVCAR-3 ovarian = test system: OVCAR-3 ovarian
UACC-257 melanoma = test system: UACC-257 melanoma
HOP-92 NSCLC = test system: HOP-92 NSCLC
SK-OV-3 ovarian = test system: SK-OV-3 ovarian
NCI-H23 lung = test system: NCI-H23 lung
KM12 colon = test system: KM12 colon
NCI-H460 lung = test system: NCI-H460 lung
HT29 colon = test system: HT29 colon
OVCAR-4 ovarian = test system: OVCAR-4 ovarian

Compound | GI50 (OVCAR-5 ovarian) | TGI (OVCAR-5 ovarian) | GI50 (OVCAR-3 ovarian) | TGI (OVCAR-3 ovarian) | GI50 (UACC-257 melanoma) | TGI (UACC-257 melanoma) | GI50 (HOP-92 NSCLC) | TGI (HOP-92 NSCLC) | GI50 (SK-OV-3 ovarian) | TGI (SK-OV-3 ovarian) | GI50 (NCI-H23 lung) | TGI (NCI-H23 lung) | GI50 (KM12 colon) | TGI (KM12 colon) | GI50 (NCI-H460 lung) | TGI (NCI-H460 lung) | TGI (HT29 colon) | TGI (OVCAR-4 ovarian) | GI50 (HT29 colon) | GI50 (OVCAR-4 ovarian)
Cc1nnc(-c2ccc(-c3nc4ccccc4o3)cc2)o1 | 44.8 µM | > 100 µM | > 100 µM | > 100 µM | 34.7 µM | 90.7 µM | > 100 µM | > 100 µM | 29.7 µM | 77.7 µM | > 100 µM | > 100 µM | 43.3 µM | > 100 µM | 25.9 µM | > 100 µM | – | – | – | –
COc1ccc2c(c1)OCCC1=C2SCC2(C)CCN=C12 (stereo not given) | – | – | – | > 100 µM | – | – | – | – | – | > 100 µM | – | > 100 µM | – | > 100 µM | – | > 100 µM | > 100 µM | > 100 µM | – | –
CCOC(=S)SCN1C(=O)c2ccccc2S1(=O)=O | 14.5 µM | 29.9 µM | 0.0358 µM | 17.3 µM | 18.5 µM | 55.2 µM | – | – | 32.1 µM | > 100 µM | 12.6 µM | 27.8 µM | 35 µM | > 100 µM | 45.4 µM | > 100 µM | 45.9 µM | 3.87 µM | 14 µM | 1.67 µM
Nc1c(-c2nc3ccccc3[nH]2)sc(=S)n1-c1ccc(Cl)cc1 | – | > 100 µM | – | 36.4 µM | – | 65.6 µM | – | – | – | 56.9 µM | – | 81.8 µM | – | 78.3 µM | – | – | 42.6 µM | 40.4 µM | – | –
COc1cc([C@@H]2c3cc4c(cc3C[C@H]3COC(=O)[C@@H]32)OCO4)cc2c1OCO2 | – | > 100 µM | – | < 0.01 µM | – | – | – | – | – | > 100 µM | – | – | – | 3.2 µM | – | 0.33 µM | < 0.01 µM | > 100 µM | – | –
C[n+]1c(N)n(C(=O)OCc2ccccc2)c(=O)c2c1ncn2C(=O)OCc1ccccc1 | – | > 100 µM | – | > 100 µM | – | > 100 µM | – | – | – | > 100 µM | – | > 100 µM | – | > 100 µM | – | > 100 µM | > 100 µM | > 100 µM | – | –
Cn1ccnc1C[N-]Cc1nccn1C.O=[N+]([O-])[O-].O=[N+]([O-])[O-].[Cu+2] | – | – | > 100 µM | > 100 µM | – | – | – | – | > 100 µM | > 100 µM | > 100 µM | > 100 µM | > 100 µM | > 100 µM | 62.8 µM | > 100 µM | > 100 µM | > 100 µM | > 100 µM | 2.49 µM
C#Cc1cc2c(N)c(C(=O)c3cc(OC)c(OC)c(OC)c3)[nH]c2cc1OC | 3.79 µM | > 100 µM | – | – | 0.532 µM | > 100 µM | 0.334 µM | 37.7 µM | 0.517 µM | > 100 µM | 1.94 µM | > 100 µM | 0.412 µM | > 100 µM | 0.408 µM | > 100 µM | 76.2 µM | > 100 µM | 0.374 µM | 0.987 µM
COc1ccc2nc3cccc(C(=O)NCCN(C)C)c3nc2c1 | – | 6.17 µM | – | 5.89 µM | – | 7.74 µM | – | > 100 µM | – | > 28 µM | – | 3.41 µM | – | 9.82 µM | – | – | 6.63 µM | 8.72 µM | – | –
CCOC(=O)/N=c1/nc(N(C)C)ss1 | – | > 100 µM | – | – | – | > 100 µM | – | > 100 µM | – | > 100 µM | – | > 100 µM | – | > 100 µM | – | > 100 µM | > 100 µM | > 100 µM | – | –
N#Cc1cccc(OCc2ccccc2COc2cccc(C#N)c2)c1 | 87 µM | > 100 µM | – | – | > 100 µM | > 100 µM | 2.36 µM | 15.4 µM | 35.7 µM | > 100 µM | 36.7 µM | > 100 µM | – | – | 40.8 µM | > 100 µM | > 100 µM | > 100 µM | > 100 µM | 54.8 µM
O=C(c1ccccc1)C1C(C(=O)c2ccccc2)C(c2ccccc2)N(c2ccccc2)C1c1ccccc1 (stereo not given) | – | > 100 µM | – | > 100 µM | – | > 100 µM | – | > 100 µM | – | – | – | > 100 µM | – | – | – | > 100 µM | – | – | – | –
ClCC#CCSc1ncnc2c1ncn2CC#CCCl | 1.73 µM | 3.34 µM | 1.51 µM | 2.95 µM | 1.36 µM | 3.49 µM | – | – | 1.86 µM | 3.95 µM | 1.49 µM | 3.46 µM | 1.39 µM | 2.8 µM | 2.15 µM | 6.77 µM | 3.85 µM | 8.29 µM | 1.65 µM | 2.12 µM
Cc1cc(O)c(C(c2ccncc2)c2c(O)cc(C)[nH]c2=O)c(=O)[nH]1 | – | > 100 µM | – | > 100 µM | – | > 100 µM | – | – | – | > 100 µM | – | > 100 µM | – | > 100 µM | – | > 100 µM | > 100 µM | > 100 µM | – | –
CN(C)CCNc1nc(-c2cccs2)cc(-c2cccs2)n1 | – | 23.9 µM | – | 48.7 µM | – | 24.2 µM | – | 8.7 µM | – | – | – | 25.7 µM | – | 28.5 µM | – | 18.3 µM | 22.2 µM | – | – | –
Oc1ccc(Cl)cc1-c1cc(-c2ccc(F)cc2)n[nH]1 | 5.39 µM | > 100 µM | 1.39 µM | 3.53 µM | 2.96 µM | 21 µM | – | – | 1.99 µM | 5.21 µM | 1.61 µM | 4.09 µM | 1.01 µM | 2.54 µM | 1.2 µM | 4.1 µM | 22.2 µM | > 100 µM | 3.99 µM | 0.593 µM
